Experimental data taken from US20250051301A1, “MUTANT IDH1 AND IDH2 INHIBITOR AND APPLICATION THEREOF” (Betta Pharmaceuticals Co., Ltd, priority 2022, published 2025).

What was measured:
IDH1^R132H [1] = target: T1, IDH1^R132H (Homo sapiens, UniProt O75874, R132H); assay: Enzyme activity inhibition assay (fluorescence-based), IDH1 R132H; format: biochemical; conditions: numeric values
Protocol: (§1) The inhibitory ability of the compounds on the enzyme activities of IDH1^R132H and IDH2^R140Qwas detected and expressed as the half inhibitory concentration (IC50) value. AG-881 was used as a positive control compound. In this experiment, compounds were screened on enzymes IDH1^R132H and IDH2^R140Q using a fluorescence-based method (initial concentration: 10000 nM, 3-fold dilution, 10 concentrations, and single-well detection). • (1) Preparation of 1×assay buffer. • (2) Preparation of compound concentration gradient: the compounds to be tested were assayed at an initial concentration of 10000 nM, with 3-fold dilution and 10 concentrations, and diluted into 200-fold the final concentration in 100% DMSO solution in a 384-well plate. • (3) 250 nL of DMSO and 250 nL of diluted compounds were transferred to a reaction plate with Echo 550. • (4) IDH2^R140Q enzyme detection: 25 μL of an IDH2^R140Q enzyme solution was added, and the mixture was incubated for 60 minutes; then 25 μL of a substrate solution was added, and the mixture was incubated for 150 minutes; then 25 μL of a detection buffer was added, and the mixture was shaken for 1 minute and incubated for 60 minutes; and finally, Synergy 2, Ex544/Em590 cutoff 590 was used for reading. • (5) IDH1^R132H enzyme detection: 40 μL of a mixture solution of an IDH1^R132H enzyme at the 1.25-fold final concentration and NADPH was added, and the mixture was incubated for 60 minutes; then 10 μL of a substrate solution at the 5-fold final concentration was added, and the mixture was incubated for 90 minutes; then 25 μL of a detection buffer at the 3-fold final concentration was added, and the mixture was shaken for 1 minute. and finally, Synergy 2, Ex544/Em590 cutoff 590 was used for reading. • (8) Inhibition rate calculation, formula: % Inhibition=(RFU_sample−RFU_min)/(RFU_max−RFU_min)*100%, wherein RFU-sample represents the fluorescence intensity of a sample; RFU-min represents the average value of negative control wells and represents the fluorescence intensity with an enzyme; and RFU-max represents the average value of positive control wells and represents the fluorescence intensity without an enzyme. The curve fitting was performed using Graphpad Prism software to obtain IC50 values, and the test results were as shown in table 2.

IDH2^R140Q = target: T2, IDH2^R140Q (Homo sapiens, UniProt P48735, R140Q); assay: Enzyme activity inhibition assay (fluorescence-based), IDH2 R140Q; format: biochemical; conditions: numeric values
T2 sequence (P48735 40-452 R140Q): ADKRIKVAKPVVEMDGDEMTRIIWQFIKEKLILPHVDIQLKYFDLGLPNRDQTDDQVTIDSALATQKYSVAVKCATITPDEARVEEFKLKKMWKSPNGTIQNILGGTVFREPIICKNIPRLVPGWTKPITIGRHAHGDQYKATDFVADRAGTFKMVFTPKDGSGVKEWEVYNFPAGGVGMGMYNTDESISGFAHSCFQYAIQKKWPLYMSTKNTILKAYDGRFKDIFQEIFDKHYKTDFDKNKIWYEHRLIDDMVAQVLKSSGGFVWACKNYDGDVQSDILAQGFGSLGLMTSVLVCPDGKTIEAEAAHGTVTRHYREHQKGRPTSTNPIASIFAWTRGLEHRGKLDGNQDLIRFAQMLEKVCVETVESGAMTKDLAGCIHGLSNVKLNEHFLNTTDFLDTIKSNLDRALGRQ
Protocol: as §1

IDH1^R132H [2] = target: T1, IDH1^R132H; assay: 2-HG assay in cells (U87 cell line stably transfected with IDH1-R132H); format: cell-based; conditions: 72 hours, numeric values, read-out: 2-HG in medium (IC50, nM) (IDH1^R132H)
Protocol: The compounds were detected for the inhibition of 2-HG production in the U87 cell line stably transfected with IDH1-R132H and the culture supernatant of TF-1 cells stably transfected with IDH2-R140Q. • (1) The cultured cells were collected by centrifugation, then suspended in a cell culture solution, counted, and seeded in a 96-well cell culture plate at 160 μL of cell suspension/well (20000 cells/well for U87-IDH1-R132H; 10000 cells/well for TF-1-IDH2-R140Q). • (2) A 96-well plate dilution was taken, and the compounds to be tested were diluted in a gradient manner in DMSO and a cell culture solution; and then 40 μL of the gradient-diluted compounds to be tested were added to the 96-well plate on which cells have been plated. […] Finally, the plate was cultured in a 37° C. incubator containing 5% CO2. • (3) After the compounds were incubated with the cells for 72 hours, the cell culture plate was taken out and centrifuged at 1500 rpm for 5 minutes, and then 100 μL of the medium supernatant was aspirated for 2-HG detection. • (4) 2-HG detection: the cell supernatant was diluted with purified water, 30 μL of the diluted sample was taken into a 1.5 ml centrifuge tube, and 200 μL of the internal standard solution was added. The mixture was mixed uniformly by vortex and centrifuged at 3200 rpm at 4° C. for 15 minutes. 100 μL of the supernatant solution was diluted with water at a 1:1 ratio and then detected by LC-MS. Analyte Peak Area was used to represent the 2-HG levels. • (5) Inhibition rate calculation, formula: % Inhibition=(1−Analyte Peak Area_sample/Analyte Peak Area_max)*100%, wherein Analyte Peak Area_sample represents the Analyte Peak Area of the sample to which the compound was added; Analyte Peak Area_max represents the average value of Analyte Peak Area of positive control wells (representing the absence of the compound). The curve fitting was performed using Graphpad Prism software to obtain IC50 values, and the test results were as shown in table 2.

T1 sequence (O75874 whole entry R132H): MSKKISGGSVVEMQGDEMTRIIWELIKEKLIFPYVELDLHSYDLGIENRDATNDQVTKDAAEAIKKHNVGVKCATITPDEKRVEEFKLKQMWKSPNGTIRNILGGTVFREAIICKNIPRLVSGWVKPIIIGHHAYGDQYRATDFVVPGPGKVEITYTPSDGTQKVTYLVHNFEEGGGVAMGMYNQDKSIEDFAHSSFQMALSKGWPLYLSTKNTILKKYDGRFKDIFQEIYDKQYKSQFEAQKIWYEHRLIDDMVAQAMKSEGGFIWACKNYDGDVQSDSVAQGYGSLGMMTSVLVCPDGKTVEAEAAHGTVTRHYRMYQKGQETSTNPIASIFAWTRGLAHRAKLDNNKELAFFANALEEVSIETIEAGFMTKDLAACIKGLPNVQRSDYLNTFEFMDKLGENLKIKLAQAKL

C[C@@H](Nc1nc(N[C@H](C)C(F)(F)F)nc(-c2cc(F)c(N)c(Cl)n2)n1)C(F)(F)F [Example 5, 6-(5-amino-6-chloro-4-fluoropyridin-2-yl)-N^2,N^4-bis((R)-1,1,1-trifluoropropyl-2-yl)-1,3,5-triazine-2,4-diamine] was tested, and the IC50 (IDH1^R132H [1]) was 8 nM, the IC50 (IDH2^R140Q) was 190 nM and the IC50 (IDH1^R132H [2]) was 0.5 nM.
